The assay relates to MV-4-11 cells. Put plainly: Gene expression microarray analysis (Affymetrix PrimeView) and GSEA. As to conditions: MV-4-11 cells, 48 hours. More on the design: RFU PODN (11730768_x_at) / Fold change /veh PODN (11730768_x_at) / RFU LINC00158 (11744669_a_at) / Fold change /veh LINC00158 (11744669_a_at) / RFU DUSP10 (11751237_a_at) / Fold change /veh DUSP10 (11751237_a_at) / RFU ID3 (11757404_x_at) / Fold change /veh ID3 (11757404_x_at) / RFU PLEKHG5 (11737974_s_at) / Fold change /veh PLEKHG5 (11737974_s_at) / RFU LRRC4B (11730491_at) / Fold change /veh LRRC4B (11730491_at) / RFU GIMAP4 (11747438_a_at) / Fold change /veh GIMAP4 (11747438_a_at) / RFU KRT8 (11758183_x_at) / Fold change /veh KRT8 (11758183_x_at) / RFU CNN1 (11734310_a_at) / Fold change /veh CNN1 (11734310_a_at) / RFU VPS37D (11726825_at) / Fold change /veh VPS37D (11726825_at) / RFU C10orf10 (11716522_x_at) / Fold change /veh C10orf10 (11716522_x_at) / RFU KIR2DL2 /// KIR2DL4 /// KIR2DL5A /// KIR2DL5B /// KIR2DS1 /// KIR2DS2 /// KIR2DS3 /// KIR2DS4 /// KIR3DL3 /// KIR3DL3 /// KIR3DS1 (11738374_at) / Fold change /veh KIR2DL2 /// KIR2DL4 /// KIR2DL5A /// KIR2DL5B /// KIR2DS1 /// KIR2DS2 /// KIR2DS3 /// KIR2DS4 /// KIR3DL3 /// KIR3DL3 /// KIR3DS1 (11738374_at) / RFU C1QL1 (11718748_at) / Fold change /veh C1QL1 (11718748_at) / RFU TMPRSS4 (11747572_a_at) / Fold change /veh TMPRSS4 (11747572_a_at) / RFU HAMP (11756126_x_at) / Fold change /veh HAMP (11756126_x_at) / RFU RNFT2 (11725882_a_at) / Fold change /veh RNFT2 (11725882_a_at) / RFU NR4A2 (11747474_a_at) / Fold change /veh NR4A2 (11747474_a_at) / RFU ABCC12 (11746883_a_at) / Fold change /veh ABCC12 (11746883_a_at) / RFU TMEM136 (11760407_x_at) / Fold change /veh TMEM136 (11760407_x_at) / RFU CLDN22 /// WWC2 (11732394_at) / Fold change /veh CLDN22 /// WWC2 (11732394_at) / RFU HLA-DPB1 (11760878_x_at) / Fold change /veh HLA-DPB1 (11760878_x_at) / RFU SPINT1 (11716480_a_at) / Fold change /veh SPINT1 (11716480_a_at) / RFU GAP43 (11754022_s_at) / Fold change /veh GAP43 (11754022_s_at) / RFU A4GNT (11735810_at) / Fold change /veh A4GNT (11735810_at) / RFU PRB3 (11715151_x_at) / Fold change /veh PRB3 (11715151_x_at) / RFU TUBB4B (11761932_at) / Fold change /veh TUBB4B (11761932_at) / RFU CAPN14 (11732068_a_at) / Fold change /veh CAPN14 (11732068_a_at) / RFU TMCC2 (11721928_a_at) / Fold change /veh TMCC2 (11721928_a_at) / RFU IRGQ (11745062_a_at) / Fold change /veh IRGQ (11745062_a_at) / RFU FAM174B (11720279_a_at) / Fold change /veh FAM174B (11720279_a_at) / RFU TMPRSS4 (11748680_a_at) / Fold change /veh TMPRSS4 (11748680_a_at) / RFU FAM212B (11763350_a_at) / Fold change /veh FAM212B (11763350_a_at) / RFU PLEKHG5 (11743358_a_at) / Fold change /veh PLEKHG5 (11743358_a_at) / RFU ZSCAN30 (11745921_a_at) / Fold change /veh ZSCAN30 (11745921_a_at) / RFU CMKLR1 (11741424_a_at) / Fold change /veh CMKLR1 (11741424_a_at) / RFU LOC101060620 /// MAPK8IP1 (11723275_at) / Fold change /veh LOC101060620 /// MAPK8IP1 (11723275_at) / RFU SPTSSB (11747773_x_at) / Fold change /veh SPTSSB (11747773_x_at) / RFU PRSS12 (11739890_at) / Fold change /veh PRSS12 (11739890_at) / RFU BIN1 (11741810_x_at) / Fold change /veh BIN1 (11741810_x_at) / RFU WNT11 (11732464_a_at) / Fold change /veh WNT11 (11732464_a_at) / RFU C10orf10 (11716521_a_at) / Fold change /veh C10orf10 (11716521_a_at) / RFU C5orf56 (11738089_at) / Fold change /veh C5orf56 (11738089_at) / RFU CYB561 (11721691_x_at) / Fold change /veh CYB561 (11721691_x_at) / RFU ANKRD19P (11752326_a_at) / Fold change /veh ANKRD19P (11752326_a_at) / RFU OR2T12 /// OR2T33 /// OR2T8 (11738714_s_at) / Fold change /veh OR2T12 /// OR2T33 /// OR2T8 (11738714_s_at) / RFU VCAN (11748164_a_at) / Fold change /veh VCAN (11748164_a_at) / RFU JSRP1 (11732532_at) / Fold change /veh JSRP1 (11732532_at) / RFU KRTAP10-11 (11738290_x_at) / Fold change /veh KRTAP10-11 (11738290_x_at) / RFU MYO3A (11730013_a_at) / Fold change /veh MYO3A (11730013_a_at) / RFU EBF3 (11725865_a_at) / Fold change /veh EBF3 (11725865_a_at) / RFU CAMK2N1 (11719241_x_at) / Fold change /veh CAMK2N1 (11719241_x_at) / RFU C5orf56 (11738088_a_at) / Fold change /veh C5orf56 (11738088_a_at) / RFU OLFML3 (11715873_a_at) / Fold change /veh OLFML3 (11715873_a_at) / RFU LOC100653217 /// NTM (11731650_a_at) / Fold change /veh LOC100653217 /// NTM (11731650_a_at) / RFU MAPK11 (11762145_a_at) / Fold change /veh MAPK11 (11762145_a_at) / RFU FIZ1 (11724087_x_at) / Fold change /veh FIZ1 (11724087_x_at) / RFU OASL (11726364_x_at) / Fold change /veh OASL (11726364_x_at) / RFU SOX15 (11748057_x_at) / Fold change /veh SOX15 (11748057_x_at) / RFU CD79A (11719716_a_at) / Fold change /veh CD79A (11719716_a_at) / RFU HIST1H1D (11736915_at) / Fold change /veh HIST1H1D (11736915_at) / RFU CASKIN2 (11723855_a_at) / Fold change /veh CASKIN2 (11723855_a_at) / RFU LOC730098 (11760151_x_at) / Fold change /veh LOC730098 (11760151_x_at) / RFU OR4N2 (11742367_at) / Fold change /veh OR4N2 (11742367_at) / RFU PRRT2 (11749266_a_at) / Fold change /veh PRRT2 (11749266_a_at) / RFU SNX32 (11753110_a_at) / Fold change /veh SNX32 (11753110_a_at) / RFU CDHR5 (11726645_a_at) / Fold change /veh CDHR5 (11726645_a_at) / RFU RCAN1 (11760418_a_at) / Fold change /veh RCAN1 (11760418_a_at) / RFU FAM167A (11723789_a_at) / Fold change /veh FAM167A (11723789_a_at) / RFU FAM26E (11764081_at) / Fold change /veh FAM26E (11764081_at) / RFU ISYNA1 (11749810_s_at) / Fold change /veh ISYNA1 (11749810_s_at) / RFU ACY1 (11761880_at) / Fold change /veh ACY1 (11761880_at) / RFU 11764098_at / Fold change /veh 11764098_at / RFU SAMD14 (11745864_x_at) / Fold change /veh SAMD14 (11745864_x_at) / RFU NPB (11741838_a_at) / Fold change /veh NPB (11741838_a_at) / RFU TMPRSS6 (11731388_a_at) / Fold change /veh TMPRSS6 (11731388_a_at) / RFU KRTAP10-2 (11738614_at) / Fold change /veh KRTAP10-2 (11738614_at) / RFU ARHGAP8 /// PRR5-ARHGAP8 (11727945_x_at) / Fold change /veh ARHGAP8 /// PRR5-ARHGAP8 (11727945_x_at) / RFU KRTAP5-7 /// NADSYN1 (11734609_at) / Fold change /veh KRTAP5-7 /// NADSYN1 (11734609_at) / RFU RASL12 (11751679_a_at) / Fold change /veh RASL12 (11751679_a_at) / RFU CDKN2B (11736163_a_at) / Fold change /veh CDKN2B (11736163_a_at) / RFU PRF1 (11729649_at) / Fold change /veh PRF1 (11729649_at) / RFU, ZNF638 /// ZNF638-IT1 / Fold change vs veh, ZNF638 /// ZNF638-IT1 / RFU, PANK3 / Fold change vs veh, PANK3 / RFU, SH3YL1 / Fold change vs veh, SH3YL1 / RFU, ZEB2 / Fold change vs veh, ZEB2 / RFU, NRIP1 / Fold change vs veh, NRIP1 / RFU, PTTG1IP / Fold change vs veh, PTTG1IP / RFU, CAPN2 / Fold change vs veh, CAPN2 / RFU, MED14 / Fold change vs veh, MED14 / RFU, SNORA58 / Fold change vs veh, SNORA58 / RFU, C1orf63 / Fold change vs veh, C1orf63 / RFU, LRRFIP1 / Fold change vs veh, LRRFIP1 / RFU, NDUFAF7 / Fold change vs veh, NDUFAF7 / RFU, SLC12A2 / Fold change vs veh, SLC12A2 / RFU, IBTK / Fold change vs veh, IBTK / RFU, ESF1 / Fold change vs veh, ESF1 / Fold change vs veh, TMEM50B / RFU, TAOK1 / Fold change vs veh, TAOK1 / RFU, ACBD3 / Fold change vs veh, ACBD3 / RFU, TMA16 / Fold change vs veh, TMA16 / RFU, RWDD3 / Fold change vs veh, RWDD3 / RFU, BCAT1 / Fold change vs veh, BCAT1 / RFU, EDEM3 / Fold change vs veh, EDEM3 / RFU, TMEM33 / Fold change vs veh, TMEM33 / RFU, WDR75 / Fold change vs veh, WDR75 / RFU, AHCTF1 / Fold change vs veh, AHCTF1 / RFU, TFRC / Fold change vs veh, TFRC / RFU, ZDHHC17 / Fold change vs veh, ZDHHC17 / RFU, NOM1 / Fold change vs veh, NOM1 / RFU, ARL8B / Fold change vs veh, ARL8B / RFU, ZBTB11 / Fold change vs veh, ZBTB11 / RFU, TAMM41 / Fold change vs veh, TAMM41 / RFU, KIAA1704 /// LOC100996395 / Fold change vs veh, KIAA1704 /// LOC100996395 / RFU, ING1 / Fold change vs veh, ING1 / RFU, TRMT61B / Fold change vs veh, TRMT61B / RFU, FUBP3 / Fold change vs veh, FUBP3 / RFU, TP53 / Fold change vs veh, TP53 / RFU, TNKS2 / Fold change vs veh, TNKS2 / RFU, ZFP14 / Fold change vs veh, ZFP14 / RFU, ACTR2 / Fold change vs veh, ACTR2 / RFU, PPP3R1 / Fold change vs veh, PPP3R1 / RFU, PIK3R1 / Fold change vs veh, PIK3R1 / RFU, HNRNPA1 / Fold change vs veh, HNRNPA1 / RFU, RNF170 / Fold change vs veh, RNF170 / RFU, ZNF28 / Fold change vs veh, ZNF28 / RFU, RNGTT / Fold change vs veh, RNGTT / RFU, OGT / Fold change vs veh, OGT / RFU, BRD1 / Fold change vs veh, BRD1 / RFU, MARS / Fold change vs veh, MARS / RFU, ZNF655 / Fold change vs veh, ZNF655 / RFU, FAHD1 / Fold change vs veh, FAHD1 / RFU, BDP1 / Fold change vs veh, BDP1 / RFU, LRRCC1 / Fold change vs veh, LRRCC1 / RFU, ARID1A / Fold change vs veh, ARID1A / RFU, ZNF146 / Fold change vs veh, ZNF146 / RFU, ZNF330 / Fold change vs veh, ZNF330 / RFU, GPN3 / Fold change vs veh, GPN3 / RFU, C9orf123 / Fold change vs veh, C9orf123 / RFU, N4BP2L2 / Fold change vs veh, N4BP2L2 / RFU, ARFIP1 / Fold change vs veh, ARFIP1 / RFU, FAM179B / Fold change vs veh, FAM179B / RFU, BCL10 / Fold change vs veh, BCL10 / RFU, UHRF1BP1L / Fold change vs veh, UHRF1BP1L / RFU, BET1 / Fold change vs veh, BET1 / RFU, CNOT2 / Fold change vs veh, CNOT2 / RFU, ZNF268 / Fold change vs veh, ZNF268 / Fold change vs veh, ZNF507 / RFU, DGCR2 / Fold change vs veh, DGCR2 / RFU, WDSUB1 / Fold change vs veh, WDSUB1 / Fold change vs veh, HSP90B1 /// MIR3652 / RFU, ADSS / Fold change vs veh, ADSS / RFU, GK / Fold change vs veh, GK / RFU, ZNF148 / Fold change vs veh, ZNF148 / RFU, TAF9 / Fold change vs veh, TAF9 / RFU, SLC1A5 / Fold change vs veh, SLC1A5 / RFU, SLMO2 / Fold change vs veh, SLMO2 / RFU, ABCC4 / Fold change vs veh, ABCC4 / RFU, LOC101060439 /// RAP1B / Fold change vs veh, LOC101060439 /// RAP1B / RFU, RFX7 / Fold change vs veh, RFX7 / RFU, GTPBP10 / Fold change vs veh, GTPBP10 / RFU, CNEP1R1 / Fold change vs veh, CNEP1R1 / RFU, BIVM-ERCC5 /// ERCC5 / Fold change vs veh, BIVM-ERCC5 /// ERCC5 / RFU, ILF3 / Fold change vs veh, ILF3 / RFU 11762660_at / Fold change /veh 11762660_at / RFU VCAN (11757783_s_at) / Fold change /veh VCAN (11757783_s_at) / RFU DDX43 (11728927_at) / Fold change /veh DDX43 (11728927_at) / RFU KRT8 (11758188_x_at) / Fold change /veh KRT8 (11758188_x_at) / RFU NKD1 (11759106_at) / Fold change /veh NKD1 (11759106_at) / RFU SRD5A1 (11742802_a_at) / Fold change /veh SRD5A1 (11742802_a_at) / RFU TPSAB1 /// TPSB2 (11721975_s_at) / Fold change /veh TPSAB1 /// TPSB2 (11721975_s_at) / RFU GSTM3 (11746129_a_at) / Fold change /veh GSTM3 (11746129_a_at) / RFU IL23R (11737362_x_at) / Fold change /veh IL23R (11737362_x_at) / RFU TMEM51 (11727254_a_at) / Fold change /veh TMEM51 (11727254_a_at) / RFU PIWIL2 (11732686_x_at) / Fold change /veh PIWIL2 (11732686_x_at) / RFU ORM1 (11744905_x_at) / Fold change /veh ORM1 (11744905_x_at) / RFU CCDC152 (11743942_at) / Fold change /veh CCDC152 (11743942_at) / RFU ECM1 (11717891_a_at) / Fold change /veh ECM1 (11717891_a_at) / RFU IL23R (11748794_a_at) / Fold change /veh IL23R (11748794_a_at) / RFU TNFAIP8L3 (11732012_x_at) / Fold change /veh TNFAIP8L3 (11732012_x_at) / RFU MBOAT4 (11741988_at) / Fold change /veh MBOAT4 (11741988_at) / RFU 11764193_at / Fold change /veh 11764193_at / RFU TMEM53 (11763286_at) / Fold change /veh TMEM53 (11763286_at) / RFU MAGEB2 (11727129_at) / Fold change /veh MAGEB2 (11727129_at) / RFU TMEM200A (11744735_a_at) / Fold change /veh TMEM200A (11744735_a_at) / RFU CCDC152 (11751479_a_at) / Fold change /veh CCDC152 (11751479_a_at) / RFU FAM211A (11726209_a_at) / Fold change /veh FAM211A (11726209_a_at) / RFU RGS16 (11746705_a_at) / Fold change /veh RGS16 (11746705_a_at) / RFU VCAN (11755009_s_at) / Fold change /veh VCAN (11755009_s_at) / RFU RHOB (11743442_s_at) / Fold change /veh RHOB (11743442_s_at) / RFU RGS16 (11720943_a_at) / Fold change /veh RGS16 (11720943_a_at) / RFU RGS16 (11720944_at) / Fold change /veh RGS16 (11720944_at) / RFU, VPS4B / Fold change vs veh, VPS4B / RFU, CREB1 / Fold change vs veh, CREB1 / RFU, DNAJC13 / Fold change vs veh, DNAJC13 / RFU, GNAQ / Fold change vs veh, GNAQ / RFU, CDK5R1 / Fold change vs veh, CDK5R1 / RFU, ZRANB3 / Fold change vs veh, ZRANB3 / RFU, CUL4A / Fold change vs veh, CUL4A / RFU, CCNY / Fold change vs veh, CCNY / RFU, UFL1 / Fold change vs veh, UFL1 / RFU, COG3 / Fold change vs veh, COG3 / RFU, DIAPH2 / Fold change vs veh, DIAPH2 / RFU, SKA2 / Fold change vs veh, SKA2 / RFU, AFF3 / Fold change vs veh, AFF3 / RFU, LMF1 / Fold change vs veh, LMF1 / RFU, IPO11 / Fold change vs veh, IPO11 / RFU, DFFB / Fold change vs veh, DFFB / RFU, FOXP1 / Fold change vs veh, FOXP1 / RFU, CARD8 / Fold change vs veh, CARD8 / RFU, STRN3 / Fold change vs veh, STRN3 / RFU, ADK / Fold change vs veh, ADK / RFU, RASSF2 / Fold change vs veh, RASSF2 / RFU, WIPF1 / Fold change vs veh, WIPF1 / RFU, LARP1B / Fold change vs veh, LARP1B / RFU, RASA1 / Fold change vs veh, RASA1 / RFU, RB1 / Fold change vs veh, RB1 / RFU, PPFIA1 / Fold change vs veh, PPFIA1 / RFU, MAT2A / Fold change vs veh, MAT2A / RFU, CCT5 / Fold change vs veh, CCT5 / RFU, WDR92 / Fold change vs veh, WDR92 / RFU, CUX1 / Fold change vs veh, CUX1 / RFU, TTC7A / Fold change vs veh, TTC7A / RFU, TMEM135 / Fold change vs veh, TMEM135 / RFU, DEPTOR / Fold change vs veh, DEPTOR / RFU, CPM / Fold change vs veh, CPM / RFU, DNAJB6 / Fold change vs veh, DNAJB6 / RFU, CACNA2D3 / Fold change vs veh, CACNA2D3 / RFU, DTX4 / Fold change vs veh, DTX4 / RFU, TFCP2 / Fold change vs veh, TFCP2 / RFU, GMCL1 /// GMCL1P1 / Fold change vs veh, GMCL1 /// GMCL1P1 / RFU, AEBP2 / Fold change vs veh, AEBP2 / RFU, SNHG1 /// SNORD22 /// SNORD25 /// SNORD26 /// SNORD27 /// SNORD28 /// SNORD29 /// SNORD31 / Fold change vs veh, SNHG1 /// SNORD22 /// SNORD25 /// SNORD26 /// SNORD27 /// SNORD28 /// SNORD29 /// SNORD31 / Fold change (Aza/veh), C12orf56 (ProbeSet 11735607_a_at) / Fold change (ACY-1035/veh), C12orf56 (ProbeSet 11735607_a_at) / Fold change (Aza/veh), FGFR1OP (ProbeSet 11751329_s_at) / Fold change (ACY-1035/veh), FGFR1OP (ProbeSet 11751329_s_at) / Fold change (Aza/veh), VPS36 (ProbeSet 11739960_a_at) / Fold change (ACY-1035/veh), VPS36 (ProbeSet 11739960_a_at) / RFU SYPL1 (11715823_x_at) / Fold change /veh SYPL1 (11715823_x_at) / RFU IGFBP7 (11715501_s_at) / Fold change /veh IGFBP7 (11715501_s_at) / RFU REEP3 (11722064_at) / Fold change /veh REEP3 (11722064_at) / RFU IGLL1 (11728026_x_at) / Fold change /veh IGLL1 (11728026_x_at): dose or concentration left out as unconfirmed. Format: cell-based, human.

As to `Nc1ncn([C@@H]2O[C@H](CO)[C@@H](O)[C@H]2O)c(=O)n1` [azacitidine], the “Fold change /veh TMPRSS4 (11747572_a_at)” value stood at 1.01.

Values taken from paper PMC5218480 (PLoS ONE, 2017).
